Drawing on PubChem BioAssay (NCI), this text covers TGI for 23 compounds.

Test systems include DLD-1 colon; DMS 273 small cell lung; KM20L2 colon; SNB-78 CNS; DMS 114 small cell lung; LXFL 529 NSCLC; NCI-H23 lung; MALME-3M melanoma; A549 NSCLC; HOP-18 NSCLC; RXF-631 renal; M19-MEL melanoma; XF 498 CNS; DU-145 prostate.
Holding throughout (assay): NCI-60 cell line screen, 48 h

The structures appear in SMILES notation.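 96-well plates; 48 h exposure; 5 concentrations. Endpoints by linear interpolation between flanking doses. Not reached: highest tested concentration assigned. TGI: concentration producing complete growth inhibition.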

For the compound `O=S1c2ccc(Cl)cc2CC(SSC2Cc3cc(Cl)ccc3S(=O)c3ccccc32)c2ccccc21` (stereo not given), the TGI in the assay with DLD-1 colon, with DMS 273 small cell lung, in the assay on KM20L2 colon, in the assay on SNB-78 CNS, with DMS 114 small cell lung and with LXFL 529 NSCLC was over 100 µM throughout. Also, the TGI with NCI-H23 lung, in the assay with MALME-3M melanoma, in the assay with A549 NSCLC, in the assay on HOP-18 NSCLC, in the assay on RXF-631 renal and in the assay with M19-MEL melanoma was over 100 µM throughout.

Turning to `CN(CCO)c1nc2c(c(=O)[nH]1)CNCC2`, the TGI in the assay with DLD-1 colon, in the assay on DMS 273 small cell lung, in the assay with KM20L2 colon, with SNB-78 CNS, with DMS 114 small cell lung and in the assay with XF 498 CNS was over 100 µM in each case. Further, the TGI in the assay with LXFL 529 NSCLC, in the assay on NCI-H23 lung, with MALME-3M melanoma, with A549 NSCLC, with HOP-18 NSCLC and in the assay on M19-MEL melanoma was over 100 µM throughout.

As for `CCOC(=O)C1C(c2ccc([N+](=O)[O-])cc2)NC(c2ccc([N+](=O)[O-])cc2)C(C(=O)OC)S1(=O)=O` (stereo not given), the TGI in the assay on DLD-1 colon, in the assay on DMS 273 small cell lung, with KM20L2 colon, in the assay on SNB-78 CNS, in the assay on DMS 114 small cell lung and in the assay on XF 498 CNS was over 100 µM throughout. Further, the TGI in the assay on LXFL 529 NSCLC, with NCI-H23 lung, in the assay on MALME-3M melanoma, with A549 NSCLC, in the assay on HOP-18 NSCLC and in the assay with M19-MEL melanoma was over 100 µM in each case.

For the compound `CNC(=O)CN(CC(N)=O)C(=O)NC`, the TGI with DLD-1 colon, with DMS 273 small cell lung, in the assay with KM20L2 colon, with SNB-78 CNS, with XF 498 CNS and with LXFL 529 NSCLC was over 100 µM in each case. In addition, the TGI in the assay on NCI-H23 lung, with MALME-3M melanoma, in the assay on A549 NSCLC, in the assay with RXF-631 renal and in the assay on M19-MEL melanoma was over 100 µM in each case.

Turning to `CN(C)CCN1C(=O)c2ccccc2C1(O)c1ccc(Cl)cc1` (stereo not given), the TGI is over 100 µM in the assay on DU-145 prostate, over 100 µM with NCI-H23 lung, 70.7 µM with MALME-3M melanoma and over 100 µM in the assay on A549 NSCLC.

As for `O=C1c2cccnc2C(=O)c2c1nc1ccccc1c2-c1cncc(-c2c3c(nc4ccccc24)C(=O)c2cccnc2C3=O)c1`, the TGI in the assay on DU-145 prostate was 0.565 µM; with NCI-H23 lung it was 0.944 µM; with MALME-3M melanoma, 1.52 µM; in the assay with A549 NSCLC, 2.6 µM.

Take `COC(=O)[C@]12CSC[C@H]1C[C@H](c1ccc(N(C)C)cc1)N2`: the TGI with DU-145 prostate, with NCI-H23 lung, with MALME-3M melanoma and in the assay with A549 NSCLC was over 100 µM in each case.

As to `Cc1n[nH]c(=O)n1/N=C/c1cccnc1`, the TGI with DU-145 prostate, in the assay on NCI-H23 lung, in the assay with MALME-3M melanoma and in the assay with A549 NSCLC was over 100 µM in each case.

On to `COC(=O)/C(C#N)=C(\Nc1ccccc1)N1CCCCC1`, for which the TGI with DU-145 prostate, in the assay on NCI-H23 lung, with MALME-3M melanoma and in the assay with A549 NSCLC was over 100 µM throughout.

In the case of `CCCCCCCCCCCCNC1(C)CNCCCNCCNCCCNC1`, the TGI was 3.07 µM with DLD-1 colon; 1.6 µM in the assay on DMS 273 small cell lung; 3.1 µM in the assay on KM20L2 colon; 3.35 µM with XF 498 CNS; 3.05 µM in the assay with LXFL 529 NSCLC; 3.12 µM with NCI-H23 lung. Further, the TGI in the assay with MALME-3M melanoma was 3.47 µM; in the assay on A549 NSCLC, 3.2 µM; in the assay with HOP-18 NSCLC, 3.07 µM; with RXF-631 renal, 3.57 µM; in the assay with M19-MEL melanoma, 3.13 µM.

On to `O=c1[nH]c(=O)n(C2CC(O)C(CO)O2)c2nc3ccc4ccccc4c3nc12` (stereo not given), for which the TGI in the assay with DU-145 prostate, in the assay with NCI-H23 lung, in the assay with MALME-3M melanoma and in the assay on A549 NSCLC was over 100 µM throughout.

Turning to `C#C[C@]1(O)CC[C@H]2[C@@H]3CCC4=C/C(=N\OCCN5CCCC5)CC[C@]4(C)[C@H]3CC[C@@]21C`, the TGI is 41 µM with DU-145 prostate, 31.3 µM with NCI-H23 lung, 23.4 µM in the assay with MALME-3M melanoma and over 59.8 µM in the assay with A549 NSCLC.

`CC1=CCC[C@]2(C)C1=CC(=O)O[C@H]2c1ccoc1`: the TGI in the assay with DU-145 prostate, with NCI-H23 lung, in the assay with MALME-3M melanoma and with A549 NSCLC was over 100 µM throughout.

Regarding `COc1c(O)cc2c(c1O)C1O[C@H](CO)C(O)[C@H](O)[C@H]1OC2=O` (stereo not given in full), the TGI with DU-145 prostate, in the assay with NCI-H23 lung, in the assay with MALME-3M melanoma and with A549 NSCLC was over 100 µM each time.

Consider `CCn1c(=O)c2c3ccc(O)cc3oc2c2ccc(O)cc21`, for which the TGI in the assay with DU-145 prostate, in the assay on NCI-H23 lung, in the assay with MALME-3M melanoma and with A549 NSCLC was over 100 µM throughout.

In the case of `COc1ccc(CCN(C)C(=O)CC(C#N)(c2ccccc2)c2ccc(OC)c(OC)c2)cc1OC` (stereo not given), the TGI in the assay on DU-145 prostate, with NCI-H23 lung, in the assay with MALME-3M melanoma and in the assay on A549 NSCLC was over 100 µM throughout.

`COC(=O)N/N=C(\C)C(CN1CCOCC1)C(c1ccccc1)c1cc2ccccc2oc1=O` (stereo not given): the TGI in the assay on DU-145 prostate, in the assay with NCI-H23 lung, with MALME-3M melanoma and with A549 NSCLC was over 100 µM each time.

Regarding `Nc1c(Cl)c([N+](=O)[O-])cc2c1OCCCCO2`, the TGI in the assay on DU-145 prostate, with NCI-H23 lung, in the assay with MALME-3M melanoma and in the assay with A549 NSCLC was over 100 µM each time.

For `O=c1c2c3c(sc2nc2n1N=CN(c1ccc(Cl)cc1)C2)CCCC3`, the TGI in the assay on DU-145 prostate is over 100 µM; in the assay with NCI-H23 lung it was over 100 µM; in the assay with MALME-3M melanoma, 97.9 µM; in the assay on A549 NSCLC, over 100 µM.

Consider `CC(C)N(c1cc2c(cc1F)c(=O)c(C(=O)O)cn2-c1ccc(N2CCN(C)CC2)cn1)C(C)C`, for which the TGI in the assay on DU-145 prostate, in the assay on NCI-H23 lung, in the assay on MALME-3M melanoma and in the assay with A549 NSCLC was over 100 µM each time.

Turning to `Cc1cc(NCC2CC/C(=C\C=C\c3ccccc3)C2=O)no1` (stereo not given), the TGI in the assay with DU-145 prostate, with NCI-H23 lung, with MALME-3M melanoma and with A549 NSCLC was over 100 µM in each case.

With `C/C1=C\CC[C@@]2(C)O[C@@H]2[C@H]2OC(=O)C(C)C2C[C@H]1O` (stereo not given in full), the TGI with DU-145 prostate, with NCI-H23 lung, in the assay on MALME-3M melanoma and in the assay on A549 NSCLC was over 100 µM each time.

Turning to `COc1ccc(C(CC(=O)c2ccccc2)C(=O)c2ccc3c(c2)OCO3)cc1` (stereo not given), the TGI in the assay on DU-145 prostate, in the assay on NCI-H23 lung, in the assay with MALME-3M melanoma and in the assay with A549 NSCLC was over 100 µM each time.
